According to patent publication US6630498B2 (SmithKline Beecham Corporation, priority 1997, dated 2003):

Key:
[1] = Mucosal to serosal permeability through rabbit colon in vitro; type: in vitro ADME
[2] = cited from earlier work
[3] = Flow through dissolution of granules with pH gradient; type: physicochemical; conditions: for in vitro dissolution profile (in words): compared to the monomethanesulfonate salt (granules); for Percent of Eprosartan dissolved from the granules: flow through 8 mL/min, 37° C.
Method: A flow through dissolution apparatus at 8 mL/min flow rate, 37° C. and the following pH gradient

SMILES | increase of mucosal to serosal permeability through rabbit colon ([1]; in the presence of L-arginine as a solution, compared to the monomethanesulfonate alone) | bioavailability (in words) ([2]; human) | mean absolute bioavailability ([2]; human) | time to maximum concentration ([2]; human, fed state) | safety and tolerability in human clinical studies ([2]; up to doses of 800 mg per day) | in vitro dissolution profile (in words) [3] | in vitro dissolution profile (in words) ([3]; listed as arginine charge-neutralization-complex) | Percent of Eprosartan dissolved from the granules ([3]; time 0 min, pH gradient) | Percent of Eprosartan dissolved from the granules ([3]; time 45 min (pH 1.2 SGF step)) | Percent of Eprosartan dissolved from the granules ([3]; time 90 min (pH 3.0 step)) | Percent of Eprosartan dissolved from the granules ([3]; time 120 min (pH 4.0 step)) | Percent of Eprosartan dissolved from the granules ([3]; time 150 min (pH 5.0 step)) | Percent of Eprosartan dissolved from the granules ([3]; time 180 min (pH 6.0 step)) | Percent of Eprosartan dissolved from the granules ([3]; time 225 min (pH 7.5 step)) | in vitro permeability through rabbit colon (in words) ([1]; compared to the monomethanesulfonate salt)
CCCCc1ncc(/C=C(\Cc2cccs2)C(=O)O)n1Cc1ccc(C(=O)O)cc1 [(E)-α-[2-n-Butyl-1-[(4-carboxyphenyl)methyl]-1H-imidazol-5-yl]methylene-2-thiophenepropionic acid monomethanesulfonate] | 50% | low and variable bioavailability | approximately 13% | 2.5 to 4 h | safe and well tolerated |  |  |  |  |  |  |  |  |  | 
CCCCc1ncc(/C=C(\Cc2cccs2)C(=O)O)n1Cc1ccc(C(=O)O)cc1.N=C(N)NCCC[C@H](N)C(=O)O [Arginyl charge-neutralization-complex, (E)-α-[2-n-butyl-1-[(4-carboxyphenyl)methyl]-1H-imidazol-5-yl]methylene-2-thiophenepropionic acid arginyl charge-neutralization-complex] |  |  |  |  |  | improved in vitro dissolution profile | better dissolution profile | 0.00% | 32.81% | 35.82% | 36.24% | 37.44% | 46.70% | 100.63% | increased in vitro permeability
